Columns and labels:
cytochrome bd-I [1] = molecular target: T1, cytochrome bd-I (Escherichia coli, UniProt P0ABJ9); experiment: Oxygen consumption assay with isolated E. coli EC958 cytochrome bd-I only membranes; assay type: biochemical
T1 construct: oxygen consumption activity of E. coli EC958 cytochrome bd-I-only membranes; endogenous in cells; host or cells: E. coli EC958 bd-I only strain (genotype ΔcyoA appCB::Cm), isolated membranes
Experimental: Membrane preparation and oxygen consumption were performed as described previously.[13] Briefly, cells were grown to exponential phase then harvested via centrifugation for 20 min at 4000 rpm and 4 °C. The cell pellet was resuspended in ice-cold sonication buffer (20 mM Tris/HCl at pH 7.4, 2 mM MgCl2, and 1 mM EGTA). The resuspended cells were sonicated (6 × 30s on ice at […]) before centrifugation at 44 000 rpm for 1 h and 4 °C to isolate membranes. The membrane pellet was resuspended in 20 mM Tris/HCl (pH 7.4) at a final concentration of 100 mg mL^−1 and stored at −20 °C. For oxygen measurements a Rank Brothers oxygen electrode with a 4 mL closed chamber was used at 37 °C, which contained 50 mM HEPES pH 7.4, 0.5 mg mL^−1 membranes (based on wet membranes) and DMSO-solubilised drug (added from 40× final concentration). A final concentration of 8 mM succinate (pH 7.4) was added (from 160 mM stock) to initiate the reaction with a single run lasting 15–20 min.

[2] = tested on: E. coli EC958 cytochrome bd-I only cells; experiment: Growth assay against E. coli cytochrome bd-I only cells; assay type: cell-based, Escherichia coli; conditions: for IC50: Escherichia coli, read-out: IC50, growth inhibition, bd-I only E. coli cells, M9 minimal medium
Experimental: (§1) EC958 is a multidrug-resistant E. coli O25: H4-ST131 isolate.[16,17] Generation of the EC958 bd-I only strain (genotype ΔcyoA appCB::Cm) is described elsewhere.[13]
(§2) Starter cultures were grown in 10 mL LB (E. coli) in sterile 50 mL conical flasks at 180 rpm and 37 °C until stationary phase was reached and were used to inoculate 50 mL of fresh growth medium in 250 mL conical flasks. M9 minimal medium was used for E. coli (16 g L^−1 Na2HPO4·2H2O, 3 g L^−1 KH2PO4, 0.5 g L^−1 NaCl, 1 g L^−1 NH4Cl, 0.24 g L^−1 MgSO4, 0.01 g L^−1 CaCl2, 0.1% casamino acids and 2% glycerol). Drug stocks were prepared in DMSO so that their final concentrations were 40× higher than the working concentrations. Greiner F-bottom sterile 96-well plates were prepared by adding 100 μL of a 2× concentrated growth medium, 61.7 μL sterile milliQ H2O, 5 μL of the drug and 33.3 μL of cell culture (final OD600 of ∼0.1). Cells were grown in a FLUOstar Omega plate reader at double orbital pattern setting.

[3] = tested on: E. coli EC958 cytochrome bd-I only cells; experiment: microbe, parasite or virus in culture; assay type: cell-based, Escherichia coli
Experimental: as §1
(§3) Viability assays were performed essentially as described previously.[13] Briefly, E. coli was grown overnight in 10 mL LB medium and was used to inoculate M9 medium. 20 μL of each drug was added to the wells of row A of a 96 well plate followed by 180 μL of cells (OD600 of 0.1). Cells were exposed to drug for 3 hours at 37 °C. Following drug exposure, serial dilutions were performed in 1 × phosphate buffered saline (pH 7.4) before being spotted onto LB agar plates overnight to determine changes in cell survival. Six repeats were performed for each concentration of drug which included two biological repeats and three technical repeats of each.

[4] = tested on: wild type E. coli EC958 cells; experiment: Growth assay against wild type E. coli EC958 cells; assay type: cell-based, Escherichia coli; conditions: wild type EC958 strain, aerobic conditions
Experimental: as §2
(§4) Figure S1. Impact of madecassic acid upon E. coli growth and survival. (A) Growth assays of MA against wild type E. coli EC958 cells. Error bars represent standard deviations for at least 4 technical repeats, including two biological repeats. (B) Wild type E. coli EC958 cells were exposed to various concentrations of madecassic acid and bacterial survival was enumerated using serial dilution and viability plating. Error bars represent standard deviations for at least four technical repeats, including two […]
(§5) (1 picture or pasted object on this page, not shown here)

[5] = tested on: wild type E. coli EC958 cells; experiment: Survival assay against wild type E. coli EC958 cells; assay type: cell-based, Escherichia coli; conditions: wild type EC958 strain
Experimental: as §3, §4, §5

succinate dehydrogenase = molecular target: T2, succinate dehydrogenase (Escherichia coli, UniProt P07014+P0AC41+P0AC44+P69054); experiment: Succinate dehydrogenase assay in isolated E. coli membranes; assay type: biochemical; conditions: 1 mM
T2 construct: endogenous in cells; host or cells: E. coli membranes; the main text says EcoM4 pSU2718G-cydABX-his6, the supplement says EC958
T2 sequence (P0AC41 whole entry): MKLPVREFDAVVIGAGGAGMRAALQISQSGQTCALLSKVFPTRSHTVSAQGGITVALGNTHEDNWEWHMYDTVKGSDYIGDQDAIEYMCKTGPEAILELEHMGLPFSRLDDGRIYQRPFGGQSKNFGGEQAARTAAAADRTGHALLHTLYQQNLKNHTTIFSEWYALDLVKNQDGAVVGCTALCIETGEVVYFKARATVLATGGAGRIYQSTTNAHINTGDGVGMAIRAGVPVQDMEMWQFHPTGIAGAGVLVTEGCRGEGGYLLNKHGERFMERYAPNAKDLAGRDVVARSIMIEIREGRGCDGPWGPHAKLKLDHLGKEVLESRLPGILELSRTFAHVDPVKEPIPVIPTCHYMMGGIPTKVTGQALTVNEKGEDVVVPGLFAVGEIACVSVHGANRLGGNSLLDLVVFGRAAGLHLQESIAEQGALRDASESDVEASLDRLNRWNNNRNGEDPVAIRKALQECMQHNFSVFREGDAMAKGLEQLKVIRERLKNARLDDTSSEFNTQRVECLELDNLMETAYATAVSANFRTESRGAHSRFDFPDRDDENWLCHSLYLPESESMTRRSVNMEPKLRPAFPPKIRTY
T2 sequence (P69054 whole entry): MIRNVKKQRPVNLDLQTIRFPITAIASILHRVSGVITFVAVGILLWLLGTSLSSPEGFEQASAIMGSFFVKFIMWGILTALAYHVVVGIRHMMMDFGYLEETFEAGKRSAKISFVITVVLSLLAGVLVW
T2 sequence (P07014 whole entry): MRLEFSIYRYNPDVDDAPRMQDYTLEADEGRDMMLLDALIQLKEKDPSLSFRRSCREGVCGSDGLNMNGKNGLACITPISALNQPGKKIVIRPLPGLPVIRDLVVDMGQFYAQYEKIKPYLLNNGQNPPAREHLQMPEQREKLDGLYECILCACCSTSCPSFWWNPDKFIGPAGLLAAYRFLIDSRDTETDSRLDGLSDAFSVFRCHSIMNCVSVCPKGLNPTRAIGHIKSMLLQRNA
T2 sequence (P0AC44 whole entry): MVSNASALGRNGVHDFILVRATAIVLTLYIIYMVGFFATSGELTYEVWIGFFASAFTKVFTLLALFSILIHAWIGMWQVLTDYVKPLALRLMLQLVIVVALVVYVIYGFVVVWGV
Excerpt: Investigating the role of cytochrome bd oxidases in the antibacterial activity of madecassic acid and derivatives thereof
Samantha A. Henry,a Geraud N. Sansom,a Thao Thi Phuong Tran,b Ryan A.
Boughton,a Guy Joiner,a Calum M. Webster,a H. Ireshika C. de Silva,c Michelle D.
Garrett,a Christopher J. Serpell,d Gary K. Robinson,a Mark Shepherd a a School of Natural Sciences, University of Kent, Canterbury, United Kingdom, CT2 7NH, UK b Institute of Chemistry, Vietnam Academy of Science and Technology, 18 Hoang Quoc Viet Road, Cau […]
c Department of Chemistry, University of Colombo, Colombo 03, Sri Lanka d School of Pharmacy, University College London, 29-39 Brunswick Square, London, WC1N 1AX, UK […]
Spectrakinetics were recorded on a Cary 60 spectrophotometer for 15 min and rates were calculated using the extinction coefficient A600 = 20.7 mM -1cm-1 (5) . […]
Isolated E. coli EC958 membranes were assayed for succinate dehydrogenase activity in the presence and absence of 1 mM madecassic acid (MA), and negative controls were recorded in the absence of membranes. […]

cytochrome bd-I [6] = molecular target: T1, cytochrome bd-I; experiment: Oxygen electrode cytochrome bd-I assay with duroquinol as the electron source (EcoM4 pSU2718G-cydABX-his6 membranes); assay type: biochemical; conditions: 1 mM, 400 µM duroquinol as electron donor
Experimental: Oxygen electrode cytochrome bd-I assays with duroquinol as the electron source Membranes from the E. coli EcoM4 pSU2718G-cydABX-his 6 strain were prepared as described previously(6). To specifically monitor cytochrome bd-I activity, duroquinol was used as a directly electron source. Duroquinol was prepared from duroquinone as previously described(7) and quantified using the extinction coefficient ΔA275(ox – red) = 16 mM-1cm-1 (8). Cytochrome bd-I activity was then monitored via oxygen consumption in a Rank Brothers oxygen electrode with a 2 mL closed chamber at 37 °C, which contained 50 mM HEPES pH 7.4, 0.5 mg/mL membranes (based on wet membranes) and DMSO-solubilised drug (added from 40x final concentration) or ‘DMSO only’ control. A final concentration of 400 µM duroquinol (in 50 mM KPi, 2mM EDTA pH 7.5) was added to initiate the reaction.
7. Rich P. Electron transfer reactions between quinols and quinones in aqueous and aprotic
8. Degli Esposti M, Lenaz G, Izzo G, Papa S. Kinetics and sidedness of ubiquinol-cytochrome c
Figure S3. […] Cytochrome bd-I activity was measured via monitoring oxygen consumption in an oxygen electrode in the presence and absence of 1 mM madecassic acid, and negative controls were recorded in the absence of membranes. […]

T1 sequence (P0ABK2 whole entry): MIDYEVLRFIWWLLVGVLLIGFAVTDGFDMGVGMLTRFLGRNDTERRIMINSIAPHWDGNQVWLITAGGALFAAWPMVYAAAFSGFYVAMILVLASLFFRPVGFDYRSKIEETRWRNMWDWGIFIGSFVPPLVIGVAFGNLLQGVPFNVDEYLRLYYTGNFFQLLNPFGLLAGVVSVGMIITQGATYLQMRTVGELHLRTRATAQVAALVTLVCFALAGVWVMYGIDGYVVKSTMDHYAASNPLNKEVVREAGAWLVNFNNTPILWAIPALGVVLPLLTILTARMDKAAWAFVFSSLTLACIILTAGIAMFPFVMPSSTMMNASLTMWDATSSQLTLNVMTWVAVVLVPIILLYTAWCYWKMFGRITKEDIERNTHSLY
T1 sequence (A5A618 whole entry, further chain): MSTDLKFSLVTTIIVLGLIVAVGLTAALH
T1 sequence (P0ABJ9 whole entry): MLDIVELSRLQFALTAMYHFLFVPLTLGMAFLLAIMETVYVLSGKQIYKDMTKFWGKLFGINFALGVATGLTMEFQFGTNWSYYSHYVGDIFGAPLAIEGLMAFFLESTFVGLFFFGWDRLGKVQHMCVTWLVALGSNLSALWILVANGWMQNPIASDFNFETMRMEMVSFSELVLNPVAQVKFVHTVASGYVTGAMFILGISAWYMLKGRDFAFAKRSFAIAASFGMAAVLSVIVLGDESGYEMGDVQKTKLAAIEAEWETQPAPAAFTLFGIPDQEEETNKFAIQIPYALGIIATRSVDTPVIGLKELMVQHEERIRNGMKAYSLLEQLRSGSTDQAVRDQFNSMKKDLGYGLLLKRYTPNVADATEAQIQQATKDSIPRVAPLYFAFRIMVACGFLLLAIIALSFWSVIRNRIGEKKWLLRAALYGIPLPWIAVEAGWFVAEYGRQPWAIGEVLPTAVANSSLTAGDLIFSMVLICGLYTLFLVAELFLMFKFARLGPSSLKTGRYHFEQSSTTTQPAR
T1 sequence (P56100 whole entry, further chain): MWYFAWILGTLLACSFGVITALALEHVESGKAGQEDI

SMILES | IC50 (cytochrome bd-I [1]) [µM] | IC50 [2] [µM] | Max inhibition of growth ([2]; bd-I only E. coli cells) [%] | killing of cells (viability assay) ([3]; bd-I only E. coli cells, 3 hours exposure at 37 °C) | IC50 ([4]; Escherichia coli, read-out: IC50, growth inhibition) [µM] | maximal inhibition of growth [4] [%] | susceptibility to killing (survival assay) [5] | inhibition of SDH activity (succinate dehydrogenase) | effect on cytochrome bd-I activity (oxygen consumption) (cytochrome bd-I [6]) | LC50 ([3]; Escherichia coli, 3 h, read-out: LC50 (killing)) [µM]
CC(=O)OCC1(C)C(OC(C)=O)C(OC(C)=O)CC2(C)C1C(O)CC1(C)C2CC=C2C3C(C)C(C)CCC3(C(=O)O)CCC21C (stereo not shown) [MA-2] | 15 ± 5 | 116 ± 22 | – | – | – | – | – | – | – | –
CC(=O)OCC1(C)C(OC(C)=O)C(OC(C)=O)CC2(C)C1C(O)CC1(C)C2CC=C2C3C(C)C(C)CCC3(C(=O)NCCCCCCCCCCN)CCC21C (stereo not shown) [MA-3] | 10 ± 1 | 16 ± 11 | – | – | – | – | – | – | – | –
C[C@H]1[C@H](C)CC[C@]2(C(=O)O)CC[C@]3(C)C(=CC[C@@H]4[C@@]5(C)C[C@@H](O)[C@H](O)[C@@](C)(CO)[C@@H]5[C@H](O)C[C@]43C)[C@H]12 [MA, Madecassic acid] | 34 ± 11 | 9.4 ± 1.5 | 63 | did not kill | ~10 | 48 | not susceptible to MA-mediated killing at concentrations below 1 mM | did not inhibit SDH | completely abolishes bd-I activity | –
CC1CCC2(C(=O)NCCCCCCCCCCN)CCC3(C)C(=CCC4C5(C)CC(O)C(O)C(C)(CO)C5C(O)CC43C)C2C1C (stereo not shown) [MA-4] | 79 ± 44 | > 250 | – | – | – | – | – | – | – | 304 ± 73
